# Calls of active or inactive are those of the source.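 How the source made its calls: active means maximal inhibition of the USP30 enzyme reaching 30% or more across the dose series; inactive means the rest.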
# Target: Ubiquitin carboxyl-terminal hydrolase 30 (Homo sapiens) (UniProt Q70CQ3)
# Assay: ubiquitin-specific protease 30 DUB inhibitors, concentration-effect, biochemical, validation of primary actives (AID 1645865)
# Conditions: purified USP30, Ub-rhodamine cleavage, fluorescence, 2 h
# Chain of Ubiquitin carboxyl-terminal hydrolase 30 (Homo sapiens) (Q70CQ3 whole entry, looked up): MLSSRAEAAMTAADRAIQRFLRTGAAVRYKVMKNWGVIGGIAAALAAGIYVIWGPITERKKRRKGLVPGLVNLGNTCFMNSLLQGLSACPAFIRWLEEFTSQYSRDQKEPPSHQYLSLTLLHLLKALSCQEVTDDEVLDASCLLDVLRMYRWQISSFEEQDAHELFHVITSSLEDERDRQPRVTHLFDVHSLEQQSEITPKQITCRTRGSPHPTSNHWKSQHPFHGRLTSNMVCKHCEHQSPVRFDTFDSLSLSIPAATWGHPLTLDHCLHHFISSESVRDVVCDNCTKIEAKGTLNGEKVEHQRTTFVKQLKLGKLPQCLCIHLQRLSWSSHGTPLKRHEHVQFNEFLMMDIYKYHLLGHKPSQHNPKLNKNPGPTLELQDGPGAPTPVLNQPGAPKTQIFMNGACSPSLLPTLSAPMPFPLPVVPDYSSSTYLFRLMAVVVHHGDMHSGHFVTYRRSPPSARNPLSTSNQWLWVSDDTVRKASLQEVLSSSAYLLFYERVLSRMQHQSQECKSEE
row,SMILES,IC50
1,COc1cccc(-c2cc(C(=O)Nc3cc(C)n(Cc4ccc(Cl)cc4)n3)no2)c1,4.38 µM
2,CCc1ccc(NC(=O)Cc2nnc(-c3ccc4ncccc4c3)o2)cc1,28.4 µM
3,CC(C)c1cc2c(c(O)c1O)[C@@]13CCCC(C)(C)[C@@H]1C[C@@H]2OC3=O,26.6 µM
4,CCN(CCCNC(=O)c1ccc(Cn2c(=O)[nH]c3ccccc3c2=O)cc1)c1ccccc1,6.5 µM
5,O=C(NCc1cccnc1)C1CCN(c2cnc(N3CCCCCC3)nc2)CC1,> 50 µM (inactive)
6,COc1ccc(NC(=O)Cn2c(CS(=O)(=O)c3ccc(C)cc3)nc3ccccc32)cc1,7.12 µM
7,O=C(O)COc1ccccc1/C=C1\CCc2c1nc1ccccc1c2C(=O)O,> 50 µM (inactive)
8,O=C(CNC(=O)c1cccc(F)c1)Nc1nc2ccccc2[nH]1,21.7 µM
9,Cc1cnc2nc3c(cc2c1)CN(CCc1ccc(Cl)cc1)CC3,> 50 µM (inactive)
10,COc1ccc(C(=O)Nc2cc(-c3ccccn3)no2)cn1,> 50 µM (inactive)
11,CC1OC1C(=O)[C@]1(O)[C@H](C)[C@@H](O)[C@@]23O[C@@]2([C@H](O)c2c(O)cccc2C3=O)[C@H]1O (stereo partly specified),> 50 µM (inactive)
12,O=C(O)C1CCN(Cc2c(-c3ccco3)nc3ccc(Cl)cn23)CC1,> 50 µM (inactive)
13,Cc1ccc(O)c(-c2cc(C(=O)Nc3ccccc3Cl)[nH]n2)c1,5.93 µM
14,Cc1ccccc1-c1nnc(-c2ccc(C(=O)NCc3ccccc3F)cc2)o1,3.32 µM
15,Cc1ccc(CSC2=NS(=O)(=O)c3ccccc3N2)cc1,> 50 µM (inactive)
16,N#Cc1cc2c(nc1SCC(=O)NCc1ccccc1)CCCC2,> 50 µM (inactive)
17,O=C(Nc1cc(-c2cccnc2)no1)c1ccc(F)c(F)c1,20 µM
18,CN1CCN(C(=O)c2ccn(-c3ccc4ccc(-c5cnn(C)c5)cn34)n2)CC1,> 50 µM (inactive)
19,O=c1[nH]c(C2CCN(S(=O)(=O)c3ccc(S(=O)(=O)NC4CCCCC4)cc3)CC2)nc2c1nnn2Cc1c(Cl)cccc1Cl,12.1 µM
20,CC1CCN(C(=O)c2cn(-c3cc(N4CCC(C)CC4)ncn3)cn2)CC1,> 50 µM (inactive)
21,CNc1nc2c(c(=O)n1C)CN(C(=O)Nc1cccc3ccccc13)CC2,> 50 µM (inactive)
22,COCCCn1c(C(=O)Nc2ccccc2OC)cc2c(=O)n3ccccc3nc21,> 5 µM (inactive)
23,COc1cnc(CSc2ncccn2)cc1OCC(=O)Nc1cc(C)ccc1C,41.3 µM
24,CC1(C)CC(=O)C2=C(C1)Nc1ccccc1N(C(=O)C(F)(F)F)C2c1cccs1 (stereo unspecified),> 50 µM (inactive)

row,SMILES,IC50
1,Cc1c(CC(=O)Nc2nn[nH]n2)c(=O)oc2cc3c(cc12)CCC1(CCCCC1)O3,> 50 µM (inactive)
2,CN(C)S(=O)(=O)c1ccc(N2CCCC2)c(C(=O)Nc2ccc(-c3cn4ccsc4n3)cc2)c1,> 50 µM (inactive)
3,N#Cc1ccc(Cl)cc1NC(=O)COc1cccnc1[N+](=O)[O-],> 50 µM (inactive)
4,O=C(c1cccnc1)N1CCC2(CC1)CC1(CO2)Nc2ccccc2-n2cccc21 (stereo unspecified),> 50 µM (inactive)
5,O=c1[nH]cccc1NS(=O)(=O)c1ccc(F)cc1,> 50 µM (inactive)
6,NC(=O)c1ccc(NC(=O)Cc2cc(-c3ccc(Cl)cc3)on2)cc1,> 50 µM (inactive)
7,CC(C)(C)c1ccc(Cn2nnc3c(=O)[nH]c(C4CCN(S(=O)(=O)c5ccc(S(=O)(=O)NC6CC6)cc5)CC4)nc32)cc1,48.7 µM
8,COc1cccc(-n2c(=O)[nH]c3c(C(N)=O)nc(-c4ccc(OCc5ccccc5)cc4)nc32)c1,> 50 µM (inactive)
9,O=C(COc1ccc2c(c1)CCC2)Nc1ccc2c(c1)CCC2,26.3 µM
10,CC(C)(C)C(=O)Nc1ccc(SCc2nnc(-c3ccccc3)o2)cc1,> 50 µM (inactive)
11,O=C1/C(=C/c2cn(-c3ccccc3)nc2-c2ccc3c(c2)OCCO3)Cc2ccccc21,> 50 µM (inactive)
12,N#Cc1ccc(NC(=O)COC(=O)c2ccc3ccccc3n2)cc1,> 50 µM (inactive)
13,CCCc1nc2sc3c(NCCN4CCOCC4)ncnc3c2c2c1CCC2,> 50 µM (inactive)
14,O=C(c1ccc(N2CCc3ccccc32)nn1)N1CCc2ccccc21,> 50 µM (inactive)
15,CC(C)(C)c1cc(CCC(=O)Nc2c3c(nc4c2CCC4)CCCC3)cc(C(C)(C)C)c1O,> 50 µM (inactive)
16,Cn1c(=O)/c(=C/c2ccccc2)[nH]c(=O)/c1=C/c1ccccc1,14.6 µM
17,Cc1nc(-c2noc3ccc(C(=O)Nc4cccnc4)cc23)cs1,14.6 µM
18,Cc1ccc2c(c1)c(=O)c(C(=O)c1ccccc1)cn2CC(=O)Nc1ccc2c(c1)OCCO2,2.6 µM
19,Cn1c(=O)sc2cc(NC(=O)c3ccc(Br)cc3)ccc21,2.21 µM
20,COc1cc(C(=O)NC(Cc2ccccc2)c2nc3ccccc3[nH]2)cc(OC)c1OC (stereo unspecified),2.06 µM
21,CC1CCN(S(=O)(=O)c2ccc3[nH]cc(C(=O)NCc4ccco4)c(=O)c3c2)CC1,> 50 µM (inactive)
22,Cc1noc(-c2cccn(Cc3cccc(C(F)(F)F)c3)c2=O)n1,> 50 µM (inactive)
23,CSc1ccccc1C(=O)Nc1sc2c(c1C(N)=O)CCC(C)C2 (stereo unspecified),2.15 µM
24,COc1cccc(NC(=O)c2ccc3noc(-c4ccc(Cl)cc4)c3c2)c1,32.6 µM

row,SMILES,IC50
1,O=C(NC1CC1)c1ccnn1-c1ccc2ccc(-c3ccncc3)cn12,> 50 µM (inactive)
2,CO/C=C/C(=O)c1cc2cnc3c(=N)cc(NC(C)=O)c([nH]1)c23,> 50 µM (inactive)
3,CCn1ccc2c(cc(C(=O)Nc3ccccc3F)n2C)c1=O,> 50 µM (inactive)
4,COc1cc2c(cc1OC)-c1cc(Nc3ccc(Br)cc3)nc(=O)n1CC2,0.939 µM
5,CC(C)NS(=O)(=O)c1ccc(CCC(=O)Nc2ccc3c(c2)OCCO3)cc1,37.8 µM
6,O=C(O)c1ccc(C2Cc3c([nH]c(=O)[nH]c3=O)O2)cc1 (stereo unspecified),9.78 µM
7,CC(=O)Nc1cc(-c2cccc(O)c2)cn2c(-c3cnn(C)c3)cnc12,2.9 µM
8,CCOCCCn1c(SCC(=O)Nc2ccccc2C(F)(F)F)nc2ccccc2c1=O,17.1 µM
9,COc1ccc(-n2ccc(=O)c(-c3nc(-c4ccccc4F)no3)n2)cc1OC,> 50 µM (inactive)
10,C/C=C1/C2=CCCN3C(=O)O[C@H]([C@H]1O)[C@H]23,> 50 µM (inactive)
11,CCc1ccc(OCc2nnc(SCC(=O)Nc3ccccc3OC)n2Cc2ccccc2)cc1,> 50 µM (inactive)
12,Cc1cnnn1-c1ccc(C(=O)Nc2ccc(Cl)cc2)cc1,29.5 µM
13,Cc1nc(-c2ccc3c(c2)nnn3CCN2CCOCC2)no1,> 50 µM (inactive)
14,Cc1ccc(-c2ccc(N3CCOCC3)nn2)cc1S(=O)(=O)N1CCOCC1,> 50 µM (inactive)
15,COc1ccc(CCNC(=O)c2cc3ccccc3s2)cc1OC,> 50 µM (inactive)
16,Cc1nc2c3ccccc3nc(NCc3ccc4c(c3)OCO4)n2n1,32.9 µM
17,O=c1c(-c2nc(C3CC3)no2)cccn1Cc1c(F)cccc1Cl,> 50 µM (inactive)
18,O=C(CN(Cc1ccc(Cl)cc1)S(=O)(=O)c1ccc(Cl)cc1)N1CCOCC1,> 50 µM (inactive)
19,COc1ccc(OC)c(-c2c(C#N)c(C)nc3c2N2CCC3CC2)c1,24.1 µM
20,O=C(Nc1cc(Cl)cc(Cl)c1)c1csnn1,16 µM
21,O=c1[nH]c(C2CCN(S(=O)(=O)c3ccc(S(=O)(=O)NC4CCCCC4)cc3)CC2)nc2c1nnn2Cc1c(F)cccc1Cl,22.8 µM
22,CC1OC2CC(O)C1(O)C1=C2C(=O)c2c(O)c3c(c(O)c2C1=O)[C@H](C)O[C@H]1CC(=O)O[C@@H]31 (stereo partly specified),> 50 µM (inactive)
23,Cc1csc2ncc(C(=O)N3CCN(c4ccccc4F)CC3)c(=O)n12,> 50 µM (inactive)
24,O=C1c2c(O)c(Cl)cc3c2[C@@]2(Oc4cc(Cl)c(O)c5c4[C@]3(O2)[C@@H]2O[C@@H]2C5=O)[C@@H]2O[C@H]12,1.1 µM

row,SMILES,IC50
1,O=C(CCc1ccc(S(=O)(=O)N2CCOCC2)cc1)Nc1ccc2c(c1)OCCO2,> 50 µM (inactive)
2,Cc1ccc(-c2ncc(C(=O)NCc3cccc(C)c3)c(-c3ccncc3)n2)cc1,> 50 µM (inactive)
3,Cc1ccc(CNC(=O)CCCn2c(=O)c3sccc3n(CC(=O)Nc3cc(Cl)ccc3C)c2=O)cc1,2.13 µM
4,N#Cc1c(Cl)cccc1Oc1ccc(S(=O)(=O)N2CCC(O)CC2)cc1,19.6 µM
5,c1csc(-c2nc(Nc3ccc4c(c3)CCC4)c3ccccc3n2)c1,4.91 µM
6,CC(C)Cc1nc2oc3c(N(C)CCO)ncnc3c2c2c1CCC2,> 50 µM (inactive)
7,COc1cccc(CNC(=O)c2ccc(CSc3nc4ccncc4n3Cc3ccccc3F)cc2)c1,29.2 µM
8,COc1cccc(NC(=O)Nc2ccc(NC(C)=O)cc2)c1,17.9 µM
9,COc1cccc(N2CCN(C(=O)c3cc(NC(C)=O)cc4nc(C)ccc34)CC2)c1,> 50 µM (inactive)
10,CCOc1ccc(CCNC(=O)c2ccc3c(c2)N(CC)C(=O)c2ccccc2S3)cc1OCC,> 50 µM (inactive)
11,COc1cc(NC(=O)COC(=O)Cn2cnc3ccccc32)cc(OC)c1,> 50 µM (inactive)
12,O=C(c1ccc(COc2cccc3ccccc23)o1)N1CCC(Cc2ccccc2)CC1,> 50 µM (inactive)
13,COc1ccc(CCN2COc3c(cc(Cl)c4cccnc34)C2)cc1OC,13.6 µM
14,Cc1ccccc1Cn1ccc(NC(=O)c2noc(C)c2[N+](=O)[O-])n1,> 50 µM (inactive)
15,O=C(NCCc1ccccn1)c1cc(-c2ccc(Br)cc2)n[nH]1,16.4 µM
16,CN(C)c1ccc(C2CC(c3c(O)n(C)c(=O)[nH]c3=O)=Nc3ccccc3S2)cc1 (stereo unspecified),1.92 µM
17,COc1ccc(NC(=O)COc2ccc3ccc(=O)oc3c2)cc1,34.8 µM
18,Cc1ccc(C(C)C)cc1OCCOCCN1CCNCC1,> 50 µM (inactive)
19,COc1cc2cc3c(c(O)c2c(O)c1-c1c(OC)cc2cc4c(c(O)c2c1O)C(=O)OC1CC(C)OC41)C(=O)OC1CC(C)OC31 (stereo unspecified),> 50 µM (inactive)
20,COc1cnc(-c2ccccn2)nc1Sc1ccccc1Cl,2.89 µM
21,O=C1N[C@@H](Cc2ccccc2)C(=O)N2[C@H]3Nc4ccccc4[C@@]3([C@]34C[C@H]5C(=O)N[C@@H](Cc6ccccc6)C(=O)N5[C@H]3Nc3ccccc34)C[C@@H]12,40.3 µM
22,COc1ccc(C(=O)CSc2ccc3nnc(CCNC(=O)c4ccc(OC)cc4)n3n2)cc1,> 50 µM (inactive)
23,O=C(CCSc1ccc(Cl)cc1)c1cccs1,20.2 µM
24,CC1(C)Cc2c(c(-c3ccco3)nc3sc4c(SCCCc5ccccc5)ncnc4c23)CO1,> 50 µM (inactive)

# Source: PubChem BioAssay AID1645865 (Buhrlage Lab, Dana-Farber Cancer Institute and Novartis …, 2021)
